Experimental data taken from publication PMC9401498 (Clinical Cancer Research, 2021).
Entries after “also recorded” stand apart in the source; their conditions may differ.

Test system: patients with advanced and/or treatment-refractory solid tumors
Assay: Safety and tolerability: adverse events
Assay type: in vivo, human
[1] = TID-fasted (n = 32), All grades
[2] = across doses and schedules, 120 patients

## O=C(Cc1cccc(OC(F)(F)F)c1)Nc1ccc(CCCCc2nnc(NC(=O)Cc3ccccn3)s2)nn1 [telaglenastat, Telaglenastat]
17 of 120 patients
  Patients with dose reductions: 14%
50 of 120 patients, primarily due to AEs
  Patients with dose interruptions: 42%
100–800 mg TID-fasted, 600–1,000 mg BID-fed
  Maximum tolerated dose (MTD): not reached; also recorded: not established
BID-fed (n = 88), All grades
  Abdominal distension (treatment-related AE): 2 (2.3) n (%)
  Activated partial thromboplastin time prolonged (treatment-related AE): 2 (2.3) n (%)
  Alanine aminotransferase increased (treatment-related AE): 14 (15.9) n (%)
  Ammonia increased (treatment-related AE): 2 (2.3) n (%)
  Anemia (treatment-related AE): 5 (5.7) n (%)
  Aspartate aminotransferase increased (treatment-related AE): 10 (11.4) n (%)
  Blood alkaline phosphatase increased (treatment-related AE): 6 (6.8) n (%)
  Blood bilirubin increased (treatment-related AE): 3 (3.4) n (%)
  Blood creatinine increased (treatment-related AE): 4 (4.5) n (%)
  Constipation (treatment-related AE): 3 (3.4) n (%)
  Decreased appetite (treatment-related AE): 8 (9.1) n (%)
  Diarrhea (treatment-related AE): 2 (2.3) n (%)
  Dysgeusia (treatment-related AE): 2 (2.3) n (%)
  Dyspepsia (treatment-related AE): 2 (2.3) n (%)
  Fatigue (treatment-related AE): 21 (23.9) n (%)
  Gastroesophageal reflux disease (treatment-related AE): 2 (2.3) n (%)
  Hypomagnesemia (treatment-related AE): 4 (4.5) n (%)
  Hyponatremia (treatment-related AE): 2 (2.3) n (%)
  Nausea (treatment-related AE): 21 (23.9) n (%)
  Neuropathy peripheral (treatment-related AE): 2 (2.3) n (%)
  Patients with ≥1 treatment-emergent AE: 84 (95.5) n (%)
  Patients with ≥1 treatment-related AE: 64 (72.7) n (%)
  Photophobia (treatment-related AE): 12 (13.6) n (%)
  Photopsia (treatment-related AE): 2 (2.3) n (%)
  Thrombocytopenia (treatment-related AE): 4 (4.5) n (%)
  Vision blurred (treatment-related AE): 3 (3.4) n (%)
  Vomiting (treatment-related AE): 5 (5.7) n (%)
  Weight decreased (treatment-related AE): 3 (3.4) n (%)
  γ-Glutamyltransferase increased (treatment-related AE): 7 (8.0) n (%)
BID-fed (n = 88), Grade 3
  Abdominal distension (treatment-related AE): 0 n (%)
  Activated partial thromboplastin time prolonged (treatment-related AE): 0 n (%)
  Alanine aminotransferase increased (treatment-related AE): 2 (2.3) n (%)
  Ammonia increased (treatment-related AE): 0 n (%)
  Anemia (treatment-related AE): 1 (1.1) n (%)
  Aspartate aminotransferase increased (treatment-related AE): 1 (1.1) n (%)
  Blood alkaline phosphatase increased (treatment-related AE): 1 (1.1) n (%)
  Blood bilirubin increased (treatment-related AE): 0 n (%)
  Blood creatinine increased (treatment-related AE): 0 n (%)
  Constipation (treatment-related AE): 0 n (%)
  Decreased appetite (treatment-related AE): 0 n (%)
  Diarrhea (treatment-related AE): 0 n (%)
  Dysgeusia (treatment-related AE): 0 n (%)
  Dyspepsia (treatment-related AE): 0 n (%)
  Fatigue (treatment-related AE): 0 n (%)
  Gastroesophageal reflux disease (treatment-related AE): 0 n (%)
  Hypomagnesemia (treatment-related AE): 0 n (%)
  Hyponatremia (treatment-related AE): 0 n (%)
  Nausea (treatment-related AE): 0 n (%)
  Neuropathy peripheral (treatment-related AE): 0 n (%)
  Patients with ≥1 treatment-emergent AE: 28 (31.8) n (%)
  Patients with ≥1 treatment-related AE: 3 (3.4) n (%)
  Photophobia (treatment-related AE): 0 n (%)
  Photopsia (treatment-related AE): 0 n (%)
  Thrombocytopenia (treatment-related AE): 0 n (%)
  Vision blurred (treatment-related AE): 0 n (%)
  Vomiting (treatment-related AE): 0 n (%)
  Weight decreased (treatment-related AE): 0 n (%)
  γ-Glutamyltransferase increased (treatment-related AE): 2 (2.3) n (%)
BID-fed (n = 88), Grade 4
  Abdominal distension (treatment-related AE): 0 n (%)
  Activated partial thromboplastin time prolonged (treatment-related AE): 0 n (%)
  Alanine aminotransferase increased (treatment-related AE): 0 n (%)
  Ammonia increased (treatment-related AE): 0 n (%)
  Anemia (treatment-related AE): 0 n (%)
  Aspartate aminotransferase increased (treatment-related AE): 0 n (%)
  Blood alkaline phosphatase increased (treatment-related AE): 0 n (%)
  Blood bilirubin increased (treatment-related AE): 0 n (%)
  Blood creatinine increased (treatment-related AE): 0 n (%)
  Constipation (treatment-related AE): 0 n (%)
  Decreased appetite (treatment-related AE): 0 n (%)
  Diarrhea (treatment-related AE): 0 n (%)
  Dysgeusia (treatment-related AE): 0 n (%)
  Dyspepsia (treatment-related AE): 0 n (%)
  Fatigue (treatment-related AE): 0 n (%)
  Gastroesophageal reflux disease (treatment-related AE): 0 n (%)
  Hypomagnesemia (treatment-related AE): 0 n (%)
  Hyponatremia (treatment-related AE): 0 n (%)
  Nausea (treatment-related AE): 0 n (%)
  Neuropathy peripheral (treatment-related AE): 0 n (%)
  Patients with ≥1 treatment-emergent AE: 5 (5.7) n (%)
  Patients with ≥1 treatment-related AE: 0 n (%)
  Photophobia (treatment-related AE): 0 n (%)
  Photopsia (treatment-related AE): 0 n (%)
  Thrombocytopenia (treatment-related AE): 0 n (%)
  Vision blurred (treatment-related AE): 0 n (%)
  Vomiting (treatment-related AE): 0 n (%)
  Weight decreased (treatment-related AE): 0 n (%)
  γ-Glutamyltransferase increased (treatment-related AE): 0 n (%)
BID-fed schedule
  Grade 3/4 ALT increase: 2%
  Grade 3/4 AST increase: 1%
BID-fed, 3/88
  Incidence of treatment-related grade 3/4 AEs: 3%
[1]
  Abdominal distension (treatment-related AE): 0 n (%)
  Activated partial thromboplastin time prolonged (treatment-related AE): 0 n (%)
  Alanine aminotransferase increased (treatment-related AE): 6 (18.8) n (%)
  Ammonia increased (treatment-related AE): 0 n (%)
  Anemia (treatment-related AE): 0 n (%)
  Aspartate aminotransferase increased (treatment-related AE): 6 (18.8) n (%)
  Blood alkaline phosphatase increased (treatment-related AE): 2 (6.3) n (%)
  Blood bilirubin increased (treatment-related AE): 0 n (%)
  Blood creatinine increased (treatment-related AE): 1 (3.1) n (%)
  Constipation (treatment-related AE): 2 (6.3) n (%)
  Decreased appetite (treatment-related AE): 0 n (%)
  Diarrhea (treatment-related AE): 1 (3.1) n (%)
  Dysgeusia (treatment-related AE): 1 (3.1) n (%)
  Dyspepsia (treatment-related AE): 0 n (%)
  Fatigue (treatment-related AE): 7 (21.9) n (%)
  Gastroesophageal reflux disease (treatment-related AE): 0 n (%)
  Hypomagnesemia (treatment-related AE): 0 n (%)
  Hyponatremia (treatment-related AE): 0 n (%)
  Nausea (treatment-related AE): 2 (6.3) n (%)
  Neuropathy peripheral (treatment-related AE): 1 (3.1) n (%)
  Patients with ≥1 treatment-emergent AE: 30 (93.8) n (%)
  Patients with ≥1 treatment-related AE: 23 (71.9) n (%)
  Photophobia (treatment-related AE): 1 (3.1) n (%)
  Photopsia (treatment-related AE): 1 (3.1) n (%)
  Thrombocytopenia (treatment-related AE): 0 n (%)
  Vision blurred (treatment-related AE): 0 n (%)
  Vomiting (treatment-related AE): 4 (12.5) n (%)
  Weight decreased (treatment-related AE): 0 n (%)
  γ-Glutamyltransferase increased (treatment-related AE): 1 (3.1) n (%)
TID-fasted (n = 32), Grade 3
  Abdominal distension (treatment-related AE): 0 n (%)
  Activated partial thromboplastin time prolonged (treatment-related AE): 0 n (%)
  Alanine aminotransferase increased (treatment-related AE): 5 (15.6) n (%)
  Ammonia increased (treatment-related AE): 0 n (%)
  Anemia (treatment-related AE): 0 n (%)
  Aspartate aminotransferase increased (treatment-related AE): 3 (9.4) n (%)
  Blood alkaline phosphatase increased (treatment-related AE): 1 (3.1) n (%)
  Blood bilirubin increased (treatment-related AE): 0 n (%)
  Blood creatinine increased (treatment-related AE): 1 (3.1) n (%)
  Constipation (treatment-related AE): 0 n (%)
  Decreased appetite (treatment-related AE): 0 n (%)
  Diarrhea (treatment-related AE): 0 n (%)
  Dysgeusia (treatment-related AE): 0 n (%)
  Dyspepsia (treatment-related AE): 0 n (%)
  Fatigue (treatment-related AE): 0 n (%)
  Gastroesophageal reflux disease (treatment-related AE): 0 n (%)
  Hypomagnesemia (treatment-related AE): 0 n (%)
  Hyponatremia (treatment-related AE): 0 n (%)
  Nausea (treatment-related AE): 0 n (%)
  Neuropathy peripheral (treatment-related AE): 0 n (%)
  Patients with ≥1 treatment-emergent AE: 9 (28.1) n (%)
  Patients with ≥1 treatment-related AE: 4 (12.5) n (%)
  Photophobia (treatment-related AE): 0 n (%)
  Photopsia (treatment-related AE): 0 n (%)
  Thrombocytopenia (treatment-related AE): 0 n (%)
  Vision blurred (treatment-related AE): 0 n (%)
  Vomiting (treatment-related AE): 0 n (%)
  Weight decreased (treatment-related AE): 0 n (%)
  γ-Glutamyltransferase increased (treatment-related AE): 0 n (%)
TID-fasted (n = 32), Grade 4
  Abdominal distension (treatment-related AE): 0 n (%)
  Activated partial thromboplastin time prolonged (treatment-related AE): 0 n (%)
  Alanine aminotransferase increased (treatment-related AE): 0 n (%)
  Ammonia increased (treatment-related AE): 0 n (%)
  Anemia (treatment-related AE): 0 n (%)
  Aspartate aminotransferase increased (treatment-related AE): 2 (6.3) n (%)
  Blood alkaline phosphatase increased (treatment-related AE): 0 n (%)
  Blood bilirubin increased (treatment-related AE): 0 n (%)
  Blood creatinine increased (treatment-related AE): 0 n (%)
  Constipation (treatment-related AE): 0 n (%)
  Decreased appetite (treatment-related AE): 0 n (%)
  Diarrhea (treatment-related AE): 0 n (%)
  Dysgeusia (treatment-related AE): 0 n (%)
  Dyspepsia (treatment-related AE): 0 n (%)
  Fatigue (treatment-related AE): 0 n (%)
  Gastroesophageal reflux disease (treatment-related AE): 0 n (%)
  Hypomagnesemia (treatment-related AE): 0 n (%)
  Hyponatremia (treatment-related AE): 0 n (%)
  Nausea (treatment-related AE): 0 n (%)
  Neuropathy peripheral (treatment-related AE): 0 n (%)
  Patients with ≥1 treatment-emergent AE: 3 (9.4) n (%)
  Patients with ≥1 treatment-related AE: 3 (9.4) n (%)
  Photophobia (treatment-related AE): 0 n (%)
  Photopsia (treatment-related AE): 0 n (%)
  Thrombocytopenia (treatment-related AE): 0 n (%)
  Vision blurred (treatment-related AE): 0 n (%)
  Vomiting (treatment-related AE): 0 n (%)
  Weight decreased (treatment-related AE): 0 n (%)
  γ-Glutamyltransferase increased (treatment-related AE): 1 (3.1) n (%)
TID-fasted, 7/32
  Incidence of treatment-related grade 3/4 AEs: 22%
Across doses and schedules, 87/120 patients
  Patients with treatment-related AEs of any grade: 72.5%
[2]
  ALT increased, treatment-related AE of any grade: 17%
  AST increased, treatment-related AE of any grade: 13%
  Fatigue, treatment-related AE of any grade: 23%
  Nausea, treatment-related AE of any grade: 19%
  Photophobia, treatment-related AE of any grade: 11%
All due to progressive disease (PD)
  Patients who died during the study-reporting period: Seven
Dose escalation, BID-fed schedule
  DLTs: No DLTs
Either schedule
  Hy's Law criteria (drug-induced liver injury): no patients on either schedule met criteria for the Hy's Law; also recorded: no cases of drug-induced liver injury according to the Hy's law criteria
Four SAEs: ALT and AST increase (400 mg TID), blood creatinine increase (250 mg TID), grade 2 convulsion (1,000 mg BID)
  Patients with treatment-related SAEs: 3 patients
